Measured values published in patent US10030016B2 (Sunesis Pharmaceuticals, Inc., priority 2009, dated 2018).
Where a name gives a salt, the structure may show the parent alone. Read-outs that look alike come from different tables or passages of the source.

Columns and labels:
[1] = tested on: phospho-akt (Thr308) in PC-3 cells; test: Inhibition of phospho-akt (Thr308) in PC-3 cells, MSD phospho-akt 308 ELISA kit; format: cell-based; details: Homo sapiens, 2 hours, no serum, read-out: EC50
In short: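 Electrochemiluminescent MSD ELISA of Thr308-phosphorylated Akt after a 2 h serum-free compound exposure of PC-3 cells (15,000/well, plated overnight). Controls: DMSO (high), 5 μM wortmannin (low). Lysate binding overnight at 4 °C; detection antibody 1 h at room temperature.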

PDK1 = PDK1 (Homo sapiens (Human), UniProt O15530); test: PDK1 kinase assay (coupled PDK1/AKT/FAM-crosstide assay, IMAP fluorescence polarization); format: biochemical
In short: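 Inhibition is derived by 4-parameter fitting of ΔmP from an IMAP fluorescence polarization read of FAM-crosstide (100 nM) phosphorylation. The cascade ran 30 min at 25 °C with 40 μM ATP, using insect-cell GST-PDK1 51-359 (0.75 nM) driving 10 nM unphosphorylated AKT2 140-467-PIFtide fusion.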

[2] = inhibition of P308 Akt in PC-3 cells using MSD
[3] = inhibition of P308 Akt in PC-3 cells, MSD
[4] = inhibition of phospo-PDK1 in vitro

Sequence of PDK1 (O15530 51-359): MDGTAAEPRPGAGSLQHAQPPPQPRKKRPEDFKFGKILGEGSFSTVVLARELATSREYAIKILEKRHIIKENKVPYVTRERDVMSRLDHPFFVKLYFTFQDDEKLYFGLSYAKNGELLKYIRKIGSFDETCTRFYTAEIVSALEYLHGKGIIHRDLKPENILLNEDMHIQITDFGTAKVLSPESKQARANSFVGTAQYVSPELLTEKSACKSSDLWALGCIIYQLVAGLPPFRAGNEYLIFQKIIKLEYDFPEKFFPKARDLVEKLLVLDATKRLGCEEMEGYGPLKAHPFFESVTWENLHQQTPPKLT

EC50 [1, 2] [nM] | IC50 (PDK1; inhibition of PDK1 in vitro) [nM] | EC50 [1, 3] [nM] | IC50 (PDK1; [4]) [nM] | EC50 ([1]; PC-3, 2 h, inhibition of P308 Akt in PC-3 cells, MSD) [nM] | SMILES
< 1000 | < 100 |  |  |  | C[C@H](NC(=O)c1cc(C#N)cnc1NCc1ccc(-c2cnc3[nH]nc(N)c3c2)nc1)c1ccc(F)cc1 [Example 66, 2-{[6-(3-Amino-1H-pyrazolo[3,4-b]pyridin-5-yl)-pyridin-3-ylmethyl]-amino}-5-cyano-N-[(S)-1-(4-fluoro-phenyl)-ethyl]-nicotinamide]
 |  | < 1000 | < 100 |  | O=C(NCc1ccc(F)c(F)c1)c1cccnc1N[C@@H](COc1ccc2[nH]c(=O)[nH]c2c1)c1ccccc1 [Example 16.1, (R)-N-(3,4-difluorobenzyl)-2-(2-(2-oxo-2,3-dihydro-1H-benzo[d]imidazol-5-yloxy)-1-phenylethylamino)nicotinamide]
1000 to 10000 | < 100 |  |  |  | CNc1ccc(-c2ccc(CNc3ncc(C#N)cc3C(=O)N[C@@H](C)c3ccc(F)cc3)cc2)cn1 [Example 141]
< 1000 | < 100 |  |  |  | Nc1n[nH]c2ncc(-c3ccc(CNc4ncc(C(F)(F)F)cc4C(=O)N[C@@H](CO)c4ccc(F)cc4)cc3)cc12 [Example 308, (R)-2-(4-(3-amino-1H-pyrazolo [3,4-b]pyridin-5-yl)benzylamino)-N-(1-(4-fluorophenyl)-2-hydroxyethyl)-5-(trifluoromethyl)nicotinamide]
> 10000 | < 100 |  |  |  | CC(C)Oc1cc(CNc2ncccc2C(=O)NCc2ccc(F)c(F)c2)cc(-c2c[nH]c3ncc(-c4ccc[nH]4)cc23)c1 [Example 335, 2-(3-(5-(1H-pyrrol-2-yl)-1H-pyrrolo[2,3-b]pyridin-3-yl)-5-isopropoxybenzylamino)-N-(3,4-difluorobenzyl) nicotinamide]
1000 to 10000 | < 100 |  |  |  | C[C@H](NC(=O)c1cccnc1NCc1ccc(-c2ccc3ncnc(NC4CC4)c3c2)s1)c1ccc(F)c(F)c1 [Example 386, 2-{[5-(4-Cyclopropylamino-quinazolin-6-yl)-thiophen-2-ylmethyl]-amino}-N-[(S)-1-(3,4-difluoro-phenyl)-ethyl]-nicotinamide]
 |  | < 1000 | < 100 |  | Nc1ncnc2ccc(-c3ccc(CNc4ncccc4C(=O)NCc4cc(F)cc(F)c4)s3)cc12 [Example 3.39, 2-({[5-(4-aminoquinazolin-6-yl)thiophen-2-yl]methyl}amino)-N-(3,5-difluorobenzyl) pyridine-3-carboxamide (TFA salt)]
 |  | 1000 to 10000 | < 100 |  | O=C(NCc1ccc(F)c(F)c1)c1cccnc1NCc1cccc(-c2c[nH]c3ncncc23)c1 [Example 6.2, 2-(3-(7H-pyrrolo[2,3-d]pyrimidin-5-yl)benzylamino)-N-(3,4-difluorobenzyl)nicotinamide]
 |  |  | 100 to 1000 | 1000 to 10000 | CC(C)NS(=O)(=O)c1cnc(NCc2ccc(-c3ccc4ncnc(N)c4c3)s2)c(C(=O)NCc2ccc(F)c(F)c2)c1 [Example 8.7.9, 2-({[5-(4-aminoquinazolin-6-yl)thiophen-2-yl]methyl}amino)-N-(3,4-difluorobenzyl)-5-(propan-2-ylsulfamoyl) pyridine-3-carboxamide]
< 1000 | < 100 |  |  |  | Nc1n[nH]c2ncc(-c3ccc(CNc4ncc(C(F)(F)F)cc4C(=O)Nc4ccc(F)cc4)cc3)nc12 [Example 184]
 |  | < 1000 | < 100 |  | O=C1Nc2cc(/C=C/CNc3ncccc3C(=O)NCc3ccc(F)c(F)c3)ccc2/C1=C/c1cnc[nH]1 [Example 15.1, 2-((E)-3-((Z)-3-((1H-imidazol-5-yl)methylene)-2-oxoindolin-6-yl)allylamino)-N-(3,4-difluorobenzyl)nicotinamide]
1000 to 10000 | 100 to 1000 |  |  |  | Nc1n[nH]c2ncc(-c3ccc(CNc4ncc(C(F)(F)F)cc4C(=O)NC4CC4)cc3)cc12 [Example 260, 2-(4-(3-amino-1H-pyrazolo[3,4-b]pyridin-5-yl)benzylamino)-N-cyclopropyl-5-(trifluoromethyl)nicotinamide]
 |  | 1000 to 10000 | 1000 to 5000 |  | Nc1ncnc2ccc(-c3ccc(CNc4ncccc4C(=O)Nc4ccc(F)c(C(F)(F)F)c4)s3)cc12 [Example 3.51, 2-({[5-(4-aminoquinazolin-6-yl)thiophen-2-yl]methyl}amino)-N-[4-fluoro-3-(trifluoromethyl)phenyl]pyridine-3-carboxamide (TFA salt)]
 |  | 1000 to 10000 | 100 to 1000 |  | Nc1ncnc2ccc(-c3ccc(CNc4ncccc4C(=O)NCc4cccnc4)s3)cc12 [Example 3.37, 2-({[5-(4-aminoquinazolin-6-yl)thiophen-2-yl]methyl}amino)-N-(pyridin-3-ylmethyl) pyridine-3-carboxamide (TFA salt)]
 |  | > 10000 | 100 to 1000 |  | CN(Cc1ccc(F)c(F)c1)C(=O)c1cccnc1NCc1ccc(-c2ccc3ncnc(N)c3c2)s1 [Example 3.13, 2-({[5-(4-aminoquinazolin-6-yl)thiophen-2-yl]methyl}amino)-N-(3,4-difluorobenzyl)-N-methylpyridine-3-carboxamide (TFA salt)]
< 1000 | < 100 |  |  |  | Nc1ncnc2ccc(-c3ccc(CNc4ncc(S(=O)(=O)NCCO)cc4C(=O)NCc4ccc(F)c(F)c4)s3)cc12 [Example 343, 2-((5-(4-aminoquinazolin-6-yl)thiophen-2-yl)methyl)amino)-(N-(3,4-difluorobenzyl)-5-(N-(2-hydroxyethyl)sulfamoyl)nicotinamide]
 |  | > 10000 | 100 to 1000 |  | Nc1ncnc2ccc(-c3ccc(CNc4ncc(S(=O)(=O)NCc5ccccc5)cc4C(=O)NCc4ccc(F)c(F)c4)s3)cc12 [Example 8.6.7, 2-(((5-(4-aminoquinazolin-6-yl)thiophen-2-yl)methyl)amino)-5-(N-benzylsulfamoyl)-N-(3,4-difluorobenzyl) nicotinamide]
 |  | < 1000 | 100 to 1000 |  | C[C@H](NC(=O)c1cccnc1NCc1ccc(-c2ccc3ncc4ncn(C)c4c3c2)s1)c1ccc(F)cc1 [Example 2.18]
> 10000 | > 5000 |  |  |  | C[C@H](NC(=O)c1cc(C#N)cnc1NCc1ncc(-c2cnc3[nH]ncc3c2)cn1)c1ccc(F)cc1 [Example 64, 5-Cyano-N-[(S)-1-(4-fluoro-phenyl)-ethyl]-2-{[5-(1H-pyrazolo[3,4-b]pyridin-5-yl)-pyrimidin-2-ylmethyl]-amino}-nicotinamide]
> 10000 | 1000 to 5000 |  |  |  | C[C@H](NC(=O)c1nc(C#N)cnc1N[C@@H](CO)c1ccc(-c2cnc3[nH]nc(N)c3c2)cc1)c1ccc(F)c(F)c1 [Example 351, 3-((R)-1-(4-(3-amino-1H-pyrazolo[3,4-b]pyridin-5-yl)phenyl)-2-hydroxy-ethylamino)-6-cyano-N-((S)-1-(3,4-difluorophenyl)ethyl)pyrazine-2-carboxamide]
 |  | < 1000 | < 100 |  | Nc1n[nH]c2ncc(-c3ccc(CNc4ncc(C(F)(F)F)cc4C(=O)N4CCc5cc(F)ccc54)cc3)cc12 [Example 30, (2-(4-(3-amino-1H-pyrazolo[3,4-b]pyridin-5-yl)benzylamino)-5-(trifluoromethyl)pyridin-3-yl)(5-fluoroindolin-1-yl)methanone]
 |  | 1000 to 10000 | 100 to 1000 |  | C[C@H](NC(=O)c1cc(F)cnc1NCc1ccc(-c2cc3c(N)ncnc3cn2)s1)c1ccc(F)c(F)c1 [Example 7.15, 2-({[5-(4-aminopyrido[3,4-d]pyrimidin-6-yl)thiophen-2-yl]methyl}amino)-N-[(1S)-1-(3,4-difluorophenyl)ethyl]-5-fluoropyridine-3-carboxamide]
1000 to 10000 | < 100 |  |  |  | C[C@H](NC(=O)c1nc(C#N)cnc1NCc1ccc(-c2cn(CCN(C)C)c3ncnc(N)c23)cc1)c1ccc(F)c(F)c1 [Example 398, (S)-3-(4-(4-amino-7-(2-(dimethylamino)ethyl)-7H-pyrrolo[2,3-d]pyrimidin-5-yl)benzylamino)-6-cyano-N-(1-(3,4-difluorophenyl)ethyl)pyrazine-2-carboxamide]
1000 to 10000 | 100 to 1000 |  |  |  | CC(C)c1ccc(NC(=O)c2cc(C(F)(F)F)cnc2NCc2ccc(-c3cnc4[nH]nc(N)c4c3)cc2)cc1 [Example 280, 2-(4-(3-amino-1H-pyrazolo [3,4-b]pyridin-5-yl)benzylamino)-N-(4-isopropylphenyl)-5-(trifluoromethyl)nicotinamide]
> 10000 | > 5000 |  |  |  | Nc1n[nH]c2ncc(-c3ccc(CNc4ncc(C(F)(F)F)cc4-c4nc5cc(F)ccc5o4)cc3)cc12 [Example 348, 5-(4-((3-(5-fluorobenzo[d]oxazol-2-yl)-5-(trifluoro-methyl)pyridin-2-ylamino)methyl)phenyl)-1H-pyrazolo [3,4-b]pyridin-3-amine]
1000 to 10000 | < 100 |  |  |  | Nc1ncnn2ccc(-c3ccc(CNc4ncc(C(F)(F)F)cc4C(=O)Nc4ccc(F)cc4)cc3)c12 [Example 177, 2-[4-(4-Amino-pyrrolo [2,1-f][1,2,4]triazin-5-yl)-benzylamino]-N-(4-fluoro-phenyl)-5-trifluoromethyl-nicotinamide]
 |  | > 10000 | < 100 |  | CC(C)Oc1cc(CNc2ncccc2C(=O)NCc2ccc(F)c(F)c2)cc(-c2ccc3ncnc(NC4CC4)c3c2)c1 [Example 5.5, 2-(3-(4-(cyclopropylamino)quinazolin-6-yl)-5-isopropoxy-benzylamino)-N-(3,4-difluorobenzyl)nicotinamide]
